These results are taken from ChEMBL document CHEMBL4627293, “Synthesis and in vitro activity of asymmetric indole-based bisamidine compounds against Gram-positive and Gram-negative pathogens” (2020).

≈ marks a conversion by molar mass, not a printed value.

The first assay has as its system Enterococcus faecium. Put plainly: Antimicrobial activity against vancomycin-resistant Enterococcus faecium ATCC 700221. The format is functional.
`COc1cc(Oc2ccc(-c3cc4ccc(C(=N)N(C)C)cc4[nH]3)cc2)ccc1-c1cc2ccc(C(=N)N(C)C)cc2[nH]1` returned an MIC of 1 µg/mL (≈ 1.75 µM).
Same read-out and setting: the same measure for `CNC(=N)c1ccc2cc(-c3ccc(Oc4ccc(-c5cc6ccc(C(=N)NC)cc6[nH]5)c(C(F)(F)F)c4)cn3)[nH]c2c1`: 0.5 µg/mL (≈ 0.86 µM); for `CN(C)C(=N)c1ccc2cc(-c3ccc(Oc4ccc(-c5cc6ccc(C(=N)N(C)C)cc6[nH]5)cn4)cc3)[nH]c2c1`: 1 µg/mL (≈ 1.85 µM).

A further assay concerns Staphylococcus aureus. Kind of assay: Antimicrobial activity against methicillin-sensitive Staphylococcus aureus ATCC 29213. The assay is classed as functional.
For `COc1cc(Oc2ccc(-c3cc4ccc(C(=N)N(C)C)cc4[nH]3)cc2)ccc1-c1cc2ccc(C(=N)N(C)C)cc2[nH]1`, the MIC turned out to be 0.25 µg/mL (≈ 0.438 µM).
Molecule `CNC(=N)c1ccc2cc(-c3ccc(Oc4ccc(-c5cc6ccc(C(=N)NC)cc6[nH]5)c(C(F)(F)F)c4)cn3)[nH]c2c1` showed an MIC of 0.5 µg/mL (≈ 0.86 µM).
`CN(C)C(=N)c1ccc2cc(-c3ccc(Oc4ccc(-c5cc6ccc(C(=N)N(C)C)cc6[nH]5)cn4)cc3)[nH]c2c1` yielded an MIC of 0.5 µg/mL (≈ 0.923 µM).

The test system of another assay is Klebsiella pneumoniae. Kind of assay: Antimicrobial activity against NDM-1 producing Klebsiella pneumoniae ATCC BAA-2146. The format is functional.
On to `COc1cc(Oc2ccc(-c3cc4ccc(C(=N)N(C)C)cc4[nH]3)cc2)ccc1-c1cc2ccc(C(=N)N(C)C)cc2[nH]1`, for which 8 µg/mL (≈ 14 µM) was the least that counted as inhibitory (MIC).
With `CNC(=N)c1ccc2cc(-c3ccc(Oc4ccc(-c5cc6ccc(C(=N)NC)cc6[nH]5)c(C(F)(F)F)c4)cn3)[nH]c2c1`, it took 16 µg/mL (≈ 27.5 µM) to inhibit growth (MIC).
Molecule `CN(C)C(=N)c1ccc2cc(-c3ccc(Oc4ccc(-c5cc6ccc(C(=N)N(C)C)cc6[nH]5)cn4)cc3)[nH]c2c1` yielded an MIC of 8 µg/mL (≈ 14.8 µM).

In the next assay the test system is Escherichia coli. Put plainly: Antimicrobial activity against Escherichia coli ATCC 25922. The format is functional.
Molecule `COc1cc(Oc2ccc(-c3cc4ccc(C(=N)N(C)C)cc4[nH]3)cc2)ccc1-c1cc2ccc(C(=N)N(C)C)cc2[nH]1` came in with an MIC of 2 µg/mL (≈ 3.5 µM).
Consider `CNC(=N)c1ccc2cc(-c3ccc(Oc4ccc(-c5cc6ccc(C(=N)NC)cc6[nH]5)c(C(F)(F)F)c4)cn3)[nH]c2c1`, for which it took 8 µg/mL (≈ 13.8 µM) to inhibit growth (MIC).
The same measure, in the same setting: next, `CN(C)C(=N)c1ccc2cc(-c3ccc(Oc4ccc(-c5cc6ccc(C(=N)N(C)C)cc6[nH]5)cn4)cc3)[nH]c2c1`: 4 µg/mL (≈ 7.38 µM).

In another assay the test system is Staphylococcus aureus. Put plainly: Antimicrobial activity against methicillin- resistant Staphylococcus aureus ATCC 33591. The format is functional.
In turn, `COc1cc(Oc2ccc(-c3cc4ccc(C(=N)N(C)C)cc4[nH]3)cc2)ccc1-c1cc2ccc(C(=N)N(C)C)cc2[nH]1` returned an MIC of 0.25 µg/mL (≈ 0.438 µM).
Take `CNC(=N)c1ccc2cc(-c3ccc(Oc4ccc(-c5cc6ccc(C(=N)NC)cc6[nH]5)c(C(F)(F)F)c4)cn3)[nH]c2c1`: the MIC was 0.5 µg/mL (≈ 0.86 µM).
The molecule `CN(C)C(=N)c1ccc2cc(-c3ccc(Oc4ccc(-c5cc6ccc(C(=N)N(C)C)cc6[nH]5)cn4)cc3)[nH]c2c1` yielded an MIC of 0.25 µg/mL (≈ 0.462 µM).

A further assay has as its system Staphylococcus epidermidis. Kind of assay: Antimicrobial activity against methicillin-susceptible Staphylococcus epidermidis ATCC 12228. The format is functional.
In turn, `COc1cc(Oc2ccc(-c3cc4ccc(C(=N)N(C)C)cc4[nH]3)cc2)ccc1-c1cc2ccc(C(=N)N(C)C)cc2[nH]1` yielded an MIC of 0.25 µg/mL (≈ 0.438 µM).
Molecule `CNC(=N)c1ccc2cc(-c3ccc(Oc4ccc(-c5cc6ccc(C(=N)NC)cc6[nH]5)c(C(F)(F)F)c4)cn3)[nH]c2c1` gave an MIC of 0.25 µg/mL (≈ 0.43 µM).
`CN(C)C(=N)c1ccc2cc(-c3ccc(Oc4ccc(-c5cc6ccc(C(=N)N(C)C)cc6[nH]5)cn4)cc3)[nH]c2c1` returned an MIC of 0.25 µg/mL (≈ 0.462 µM).

The next assay deals with Providencia rettgeri. Put plainly: Antimicrobial activity against Providencia rettgeri ATCC 31052. The format is functional.
Turning to `COc1cc(Oc2ccc(-c3cc4ccc(C(=N)N(C)C)cc4[nH]3)cc2)ccc1-c1cc2ccc(C(=N)N(C)C)cc2[nH]1`, the MIC turned out to be 8 µg/mL (≈ 14 µM).
The molecule `CNC(=N)c1ccc2cc(-c3ccc(Oc4ccc(-c5cc6ccc(C(=N)NC)cc6[nH]5)c(C(F)(F)F)c4)cn3)[nH]c2c1` displayed an MIC of 64 µg/mL (≈ 110 µM).
In turn, `CN(C)C(=N)c1ccc2cc(-c3ccc(Oc4ccc(-c5cc6ccc(C(=N)N(C)C)cc6[nH]5)cn4)cc3)[nH]c2c1` displayed a minimal inhibitory concentration (MIC) of 8 µg/mL (≈ 14.8 µM).

In the next assay the test system is Klebsiella pneumoniae. Put plainly: Antimicrobial activity against ESBL-producing Klebsiella pneumoniae ATCC 700603. The assay is classed as functional.
For `COc1cc(Oc2ccc(-c3cc4ccc(C(=N)N(C)C)cc4[nH]3)cc2)ccc1-c1cc2ccc(C(=N)N(C)C)cc2[nH]1`, the MIC was determined as 8 µg/mL (≈ 14 µM).
With `CNC(=N)c1ccc2cc(-c3ccc(Oc4ccc(-c5cc6ccc(C(=N)NC)cc6[nH]5)c(C(F)(F)F)c4)cn3)[nH]c2c1`, the MIC was 32 µg/mL (≈ 55 µM).
As for `CN(C)C(=N)c1ccc2cc(-c3ccc(Oc4ccc(-c5cc6ccc(C(=N)N(C)C)cc6[nH]5)cn4)cc3)[nH]c2c1`, the MIC was found to be 8 µg/mL (≈ 14.8 µM).

Another assay relates to Acinetobacter calcoaceticus. Kind of assay: Antimicrobial activity against Acinetobacter calcoaceticus ATCC 19606. The assay is classed as functional.
Consider `COc1cc(Oc2ccc(-c3cc4ccc(C(=N)N(C)C)cc4[nH]3)cc2)ccc1-c1cc2ccc(C(=N)N(C)C)cc2[nH]1`, for which the MIC was 64 µg/mL (≈ 112 µM).
Still for that read-out and setting: the same measure for `CNC(=N)c1ccc2cc(-c3ccc(Oc4ccc(-c5cc6ccc(C(=N)NC)cc6[nH]5)c(C(F)(F)F)c4)cn3)[nH]c2c1`: 64 µg/mL (≈ 110 µM); for `CN(C)C(=N)c1ccc2cc(-c3ccc(Oc4ccc(-c5cc6ccc(C(=N)N(C)C)cc6[nH]5)cn4)cc3)[nH]c2c1`: 128 µg/mL (≈ 236 µM).

The next assay relates to Klebsiella pneumoniae. Kind of assay: Antimicrobial activity against Klebsiella pneumoniae 7. The format is functional.
In turn, `COc1cc(Oc2ccc(-c3cc4ccc(C(=N)N(C)C)cc4[nH]3)cc2)ccc1-c1cc2ccc(C(=N)N(C)C)cc2[nH]1` gave an MIC of 8 µg/mL (≈ 14 µM).
On to `CNC(=N)c1ccc2cc(-c3ccc(Oc4ccc(-c5cc6ccc(C(=N)NC)cc6[nH]5)c(C(F)(F)F)c4)cn3)[nH]c2c1`, for which the lowest concentration to inhibit growth (MIC) was 16 µg/mL (≈ 27.5 µM).
`CN(C)C(=N)c1ccc2cc(-c3ccc(Oc4ccc(-c5cc6ccc(C(=N)N(C)C)cc6[nH]5)cn4)cc3)[nH]c2c1` displayed an MIC of 4 µg/mL (≈ 7.38 µM).

The test system of the next assay is Klebsiella pneumoniae. Kind of assay: Potency index, ratio of MIC for Levofloxacin to MIC for test compound against NDM-1 producing Klebsiella pneumoniae ATCC BAA-2146. The assay is classed as functional.
With `COc1cc(Oc2ccc(-c3cc4ccc(C(=N)N(C)C)cc4[nH]3)cc2)ccc1-c1cc2ccc(C(=N)N(C)C)cc2[nH]1`, the Ratio turned out to be 16.

A further assay relates to Enterococcus faecalis. Kind of assay: Antimicrobial activity against Vancomycin-sensitive Enterococcus faecalis ATCC 29212. The assay is classed as functional.
Molecule `COc1cc(Oc2ccc(-c3cc4ccc(C(=N)N(C)C)cc4[nH]3)cc2)ccc1-c1cc2ccc(C(=N)N(C)C)cc2[nH]1` came in with an MIC of 0.5 µg/mL (≈ 0.876 µM).
Same read-out and setting: the same measure for `CNC(=N)c1ccc2cc(-c3ccc(Oc4ccc(-c5cc6ccc(C(=N)NC)cc6[nH]5)c(C(F)(F)F)c4)cn3)[nH]c2c1`: 1 µg/mL (≈ 1.72 µM); for `CN(C)C(=N)c1ccc2cc(-c3ccc(Oc4ccc(-c5cc6ccc(C(=N)N(C)C)cc6[nH]5)cn4)cc3)[nH]c2c1`: 2 µg/mL (≈ 3.69 µM).

For the next assay, the system named is Enterococcus faecalis. Kind of assay: Antimicrobial activity against Vancomycin-resistant Enterococcus faecalis ATCC 51299. The assay is classed as functional.
Molecule `COc1cc(Oc2ccc(-c3cc4ccc(C(=N)N(C)C)cc4[nH]3)cc2)ccc1-c1cc2ccc(C(=N)N(C)C)cc2[nH]1` came in with an MIC of 0.5 µg/mL (≈ 0.876 µM).
In turn, `CNC(=N)c1ccc2cc(-c3ccc(Oc4ccc(-c5cc6ccc(C(=N)NC)cc6[nH]5)c(C(F)(F)F)c4)cn3)[nH]c2c1` came in with a minimal inhibitory concentration (MIC) of 1 µg/mL (≈ 1.72 µM).
Still for that read-out and setting: next, `CN(C)C(=N)c1ccc2cc(-c3ccc(Oc4ccc(-c5cc6ccc(C(=N)N(C)C)cc6[nH]5)cn4)cc3)[nH]c2c1`: 2 µg/mL (≈ 3.69 µM).

In another assay the test system is Citrobacter freundii. Kind of assay: Antimicrobial activity against Citrobacter freundii ATCC 43864. The assay is classed as functional.
The molecule `COc1cc(Oc2ccc(-c3cc4ccc(C(=N)N(C)C)cc4[nH]3)cc2)ccc1-c1cc2ccc(C(=N)N(C)C)cc2[nH]1` registered an MIC of 4 µg/mL (≈ 7.01 µM).
Still for that read-out and setting: next, `CNC(=N)c1ccc2cc(-c3ccc(Oc4ccc(-c5cc6ccc(C(=N)NC)cc6[nH]5)c(C(F)(F)F)c4)cn3)[nH]c2c1`: 16 µg/mL (≈ 27.5 µM).
As for `CN(C)C(=N)c1ccc2cc(-c3ccc(Oc4ccc(-c5cc6ccc(C(=N)N(C)C)cc6[nH]5)cn4)cc3)[nH]c2c1`, the MIC is 4 µg/mL (≈ 7.38 µM).

A further assay relates to Proteus vulgaris. Kind of assay: Antimicrobial activity against Proteus vulgaris ATCC 29905. The assay is classed as functional.
In turn, `COc1cc(Oc2ccc(-c3cc4ccc(C(=N)N(C)C)cc4[nH]3)cc2)ccc1-c1cc2ccc(C(=N)N(C)C)cc2[nH]1` showed an MIC of 8 µg/mL (≈ 14 µM).
Same read-out and setting: next, `CNC(=N)c1ccc2cc(-c3ccc(Oc4ccc(-c5cc6ccc(C(=N)NC)cc6[nH]5)c(C(F)(F)F)c4)cn3)[nH]c2c1`: 64 µg/mL (≈ 110 µM); `CN(C)C(=N)c1ccc2cc(-c3ccc(Oc4ccc(-c5cc6ccc(C(=N)N(C)C)cc6[nH]5)cn4)cc3)[nH]c2c1`: 8 µg/mL (≈ 14.8 µM).

A further assay relates to Pseudomonas aeruginosa. Put plainly: Antimicrobial activity against Pseudomonas aeruginosa ATCC 27853. The assay is classed as functional.
As to `COc1cc(Oc2ccc(-c3cc4ccc(C(=N)N(C)C)cc4[nH]3)cc2)ccc1-c1cc2ccc(C(=N)N(C)C)cc2[nH]1`, 128 µg/mL (≈ 224 µM) was the least that counted as inhibitory (MIC).
Consider `CNC(=N)c1ccc2cc(-c3ccc(Oc4ccc(-c5cc6ccc(C(=N)NC)cc6[nH]5)c(C(F)(F)F)c4)cn3)[nH]c2c1`, for which 64 µg/mL (≈ 110 µM) was the least that counted as inhibitory (MIC).
In the case of `CN(C)C(=N)c1ccc2cc(-c3ccc(Oc4ccc(-c5cc6ccc(C(=N)N(C)C)cc6[nH]5)cn4)cc3)[nH]c2c1`, the MIC amounted to 64 µg/mL (≈ 118 µM).
